Results reported in PubChem BioAssay (NCI).
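Briefly, cells in 96-well plates were exposed to five compound concentrations for 48 h, and endpoints were estimated by linear interpolation. Here, GI50 denotes the concentration required for 50% inhibition of growth. TGI: concentration producing complete growth inhibition.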

System: MDA-MB-468 breast
Assay: DTP human tumour cell line panel, 48 h

Structure (SMILES) | GI50 [µM] | TGI [µM]
C=C1C(=O)O[C@H]2[C@H]1CC/C(COC(=O)NCc1ccccc1OC)=C\CC[C@@]1(C)O[C@@H]21 | 0.669 | 2.8
COC(=O)[C@H](Cc1cn(C)cn1)NC(=O)[C@H](Cc1c[nH]c2ccccc12)NC(=O)Nc1cc(C(F)(F)F)cc(C(F)(F)F)c1 | > 10 | > 10
COC(=O)[C@@H](C)C[C@H](Cc1ccccc1)NC(=O)c1nc([C@@H](C[C@H](C(C)C)N(C)C(=O)[C@@H](NC(=O)[C@H]2CCCCN2C)C(C)C)OC(C)=O)sc1C | < 0.00167 | > 16.7
CCCCCn1c(=N)n(CC(O)COc2cccc(C)c2)c2ccccc21 (stereo not drawn) | 2.38 | 5.29
COC(=O)/C=C/C=C(c1ccccc1)c1ccccc1 | 3.47 | 18.7
CN1CCN(CCc2cccc(C(=O)c3cnn(-c4ccc(F)cc4)c3N)c2)CC1 | > 25 | > 25
Nc1c(C(=O)Nc2cccc([N+](=O)[O-])c2)sc2nc3c(cc12)C(O)CCC3 (stereo not drawn) | 2.11 | > 100
O=C(CCCCCCNC(=O)C(O)(O)C(F)(F)F)Nc1ccc(-c2ccccc2)cc1 | 0.861 | 3.1
CCN(CC)S(=O)(=O)c1ccc(OC)c(Nc2ncc(-c3ccccc3)o2)c1 | > 10.4 | > 25
C[C@@H](C(=O)Nc1ccc(Cl)cc1)C1CCC(c2ccnc3ccc(F)cc23)CC1 (stereo partly drawn) | 2.7 | 14.1
O=CNc1c(Cl)cc2c(c1Cl)Cc1cc([N+](=O)[O-])ccc1-2 | 0.317 | 1.27
COc1ccc(C(=O)/C=C/c2ccc(/C=C/c3cc(OC)c(OC)c(OC)c3)cc2)cc1 | 3.39 | 48.7
COc1ccc2c(c1)O/C(=C\c1cccc(OCC(=O)Nc3nc4c(s3)CCCC4)c1)C2=O | 1.71 | 48.4
CNC(=O)c1cncc(/C=C/c2ccccc2C)c1 | > 25 | > 25
CCN(CC)c1ccc(C(=C2C=CC(=[N+](CC)Cc3cccc(S(=O)(=O)O)c3)C=C2)c2ccc(N(CC)Cc3cccc(S(=O)(=O)O)c3)cc2)cc1 | 2.58 | 15.9
O=S(=O)(NC1CC2CCC1C2)c1ccc2c(c1)C(=NO)c1cc(S(=O)(=O)NC3CC4CCC3C4)ccc1-2 (stereo not drawn) | 0.327 | 1.09
C[C@H](Nc1ncnc2nc[nH]c12)c1cc2cccc(Cl)c2c(=O)n1-c1ccccc1 | 1.55 | 22.9
COC(=O)[C@]12CC[C@@H](C)[C@H](C)[C@@H]1C1=CC[C@@H]3[C@@]4(C)C[C@@H](OC(C)=O)[C@H](O)[C@@](C)(COC(C)=O)[C@@H]4[C@H](O)C[C@@]3(C)[C@]1(C)CC2 | 2.33 | 7.27
CC(C)(C)C[C@H]1NC(C(=O)NCC[C@H](O)CO)[C@H](c2cccc(Cl)c2)[C@@]12C(=O)Nc1cc(Cl)c(F)cc12 (stereo partly drawn) | 12.4 | 27.3
